Laboratory results from ChEMBL document CHEMBL1152793, “Targeted delivery of compounds to Trypanosoma brucei using the melamine motif” (Bioorg Med Chem, 2009).
Activity calls are given as the source filed them. The calls are words filed in the database; no cut-off is given here.

Experiments:
[1] = tested on: Trypanosoma brucei brucei; assay: Antitrypanosomal activity against wild type Trypanosoma brucei brucei s427 after 48 hrs by alamar blue assay; format: functional, organism-based; conditions: s427, 48 h
[2] = tested on: Trypanosoma brucei brucei; assay: Inhibition of DNA replication in wild type Trypanosoma brucei brucei s427 assessed as kinetoplast disintegrate at IC50 after 24 hrs by DAPI staining visualized by fluorescence microscopy; format: functional, organism-based
[3] = tested on: Trypanosoma brucei brucei; assay: Antitrypanosomal activity against TbAT1 knock out Trypanosoma brucei brucei mutant after 48 hrs by alamar blue assay; format: functional, organism-based
[4] = tested on: Trypanosoma brucei brucei; assay: Antitrypanosomal activity against TbAT1 knock out and pentamidine-resistant Trypanosoma brucei brucei B48 mutant after 48 hrs by alamar blue assay; format: functional, organism-based
[5] = tested on: Trypanosoma brucei brucei; assay: Resistance factor, ratio of IC50 for TbAT1 knock out Trypanosoma brucei brucei mutant to IC50 for wild type Trypanosoma brucei brucei s427; format: functional
[6] = tested on: Trypanosoma brucei brucei; assay: Resistance factor, ratio of IC50 for TbAT1 knock out and pentamidine-resistant Trypanosoma brucei brucei B48 mutant to IC50 for wild type Trypanosoma brucei brucei s427; format: functional

Compound	IC50 [1] [µM]	Activity [2]	IC50 [3] [µM]	IC50 [4] [µM]	Ratio IC50 [5]	Ratio IC50 [6]
O=C(O)c1cn(C2CC2)c2cc(N3CCNCC3)c(F)cc2c1=O [CIPROFLOXACIN]	17.2	–	–	–	–	–
C[C@@H]1CN(c2c(F)c(N)c3c(=O)c(C(=O)O)cn(C4CC4)c3c2F)C[C@H](C)N1 [SPARFLOXACIN]	18.5	–	–	–	–	–
CC1COc2c(N3CCN(C)CC3)c(F)cc3c(=O)c(C(=O)O)cn1c23 (stereo not drawn) [OFLOXACIN]	> 100	–	–	–	–	–
CCn1cc(C(=O)O)c(=O)c2cc(F)c(N3CCNCC3)cc21 [NORFLOXACIN]	39.9	Active	–	–	–	–
NCCCNc1nc(N)nc(N)n1	> 100	–	> 100	> 100	–	–
C[C@H]1[C@H](OC(=O)CCC(=O)O)O[C@@H]2O[C@@]3(C)CC[C@H]4[C@H](C)CC[C@@H]1[C@@]24OO3 [ARTESUNATE]	12.8	–	15	27.5	1.2	2.1
CC1COc2c(N3CCN(C)CC3)c(F)cc3c(=O)c(C(=O)OCCCNc4nc(N)nc(N)n4)cn1c23 (stereo not drawn)	31.6	–	35.7	31.5	1.1	1
CC(C)(C)OC(=O)NCCCC(N)(C(=O)NCCCNc1nc(N)nc(N)n1)C(F)F (stereo not drawn)	355	–	105	> 100	0.3	–
CC(C)(C)OC(=O)NCCCC(N)(C(=O)OCCCNc1nc(N)nc(N)n1)C(F)F (stereo not drawn)	382	–	400	888	1	2.3
Nc1nc(N)nc(N2CCN(c3cc4c(cc3F)c(=O)c(C(=O)O)cn4C3CC3)CC2)n1	4940	–	–	–	–	–
Nc1nc(N)nc(NCCCC(N)(C(=O)O)C(F)F)n1 (stereo not drawn)	> 100	–	–	–	–	–
NCCCC(N)(C(=O)OCCCNc1nc(N)nc(N)n1)C(F)F (stereo not drawn)	> 100	–	> 100	> 100	–	–
C[C@H]1[C@H](OC(=O)CCC(=O)OCCCNc2nc(N)nc(N)n2)O[C@@H]2O[C@@]3(C)CC[C@H]4[C@H](C)CC[C@@H]1[C@@]24OO3	4	–	5	12.1	1.2	3
C[C@H]1[C@H](OC(=O)CCC(=O)NCCCNc2nc(N)nc(N)n2)O[C@@H]2O[C@@]3(C)CC[C@H]4[C@H](C)CC[C@@H]1[C@@]24OO3	2.6	–	2.9	7.1	1.1	2.7
CCn1cc(C(=O)O)c(=O)c2cc(F)c(N3CCN(c4nc(N)nc(N)n4)CC3)cc21	5.2	inactive	32.7	27.7	6.3	5.3
NCCCC(N)(C(=O)NCCCNc1nc(N)nc(N)n1)C(F)F (stereo not drawn)	> 100	–	> 100	> 100	–	–
CC1COc2c(N3CCN(C)CC3)c(F)cc3c(=O)c(C(=O)NCCCNc4nc(N)nc(N)n4)cn1c23 (stereo not drawn)	112	–	> 100	> 100	–	–
Nc1nc(N)nc(NCCCO)n1	> 100	–	> 100	> 100	–	–
CCn1cc(C(=O)O)c(=O)c2cc(F)c(N3CCNC(C)C3)c(F)c21 (stereo not drawn) [LOMEFLOXACIN]	197	–	–	–	–	–
